Reference: the NIST ThermoML archive (doi:10.1021/je060084c)
± gives the expanded uncertainty stated by the source.

How the values were obtained:
[1] = 298.15 K; for mass density: 101.33 kPa, Liquid
[2] = refractive index (Na D-line) (dimensionless); conditions: 298.15 K; 101.33 kPa; Liquid; Standard Abbe refractometry
[3] = refractive index (Na D-line) (dimensionless); xn = mol fraction of the nth substance listed; conditions: 298.15 K, 101 kPa, Liquid, Standard Abbe refractometry
[4] = xn = mol fraction of the nth substance listed; conditions: 298.15 K; for mass density: 101 kPa, Liquid

CC(=O)O [acetic acid]
Conditions | mass density [kg/m3] | refractive index | surface tension liquid-gas [mN/m]
[1] | 1043.95 ± 0.42 | – | 27.08 ± 0.3
[2] | – | 1.36969 ± 0.00068 | –

CC(=O)O [acetic acid] + O
Conditions | mass density, [4] [kg/m3] | refractive index, [3] | surface tension liquid-gas, [4] [mN/m]
x1 = 0.0001 | – | – | 71.79 ± 0.55
x1 = 0.0005 | – | – | 71.18 ± 0.57
x1 = 0.0007 | 997.41 ± 0.32 | 1.33285 ± 0.00068 | 71.04 ± 0.57
x1 = 0.0008 | – | – | 70.84 ± 0.57
x1 = 0.0012 | 997.88 ± 0.31 | 1.33312 ± 0.00068 | 70.37 ± 0.6
x1 = 0.006 | 998.92 ± 0.31 | 1.33422 ± 0.00068 | 66.17 ± 0.53
x1 = 0.0066 | – | – | 65.76 ± 0.53
x1 = 0.0119 | 1000.78 ± 0.31 | 1.33576 ± 0.00068 | 62.57 ± 0.51
x1 = 0.0138 | – | – | 61.57 ± 0.5
x1 = 0.0234 | – | – | 58.26 ± 0.48
x1 = 0.0257 | 1004.39 ± 0.32 | 1.33874 ± 0.00068 | 57.45 ± 0.47
x1 = 0.0404 | – | – | 53.14 ± 0.45
x1 = 0.0516 | 1011.91 ± 0.34 | 1.34364 ± 0.00068 | 50.64 ± 0.43
x1 = 0.0746 | – | – | 47.25 ± 0.41
x1 = 0.1086 | – | – | 43.43 ± 0.39
x1 = 0.1108 | 1031.57 ± 0.38 | 1.35281 ± 0.00068 | 43.39 ± 0.39
x1 = 0.1513 | 1040.9 ± 0.4 | 1.35708 ± 0.00068 | 40.12 ± 0.37
x1 = 0.1814 | 1046.55 ± 0.42 | 1.36009 ± 0.00068 | 39.24 ± 0.37
x1 = 0.2288 | 1052.46 ± 0.43 | 1.36386 ± 0.00068 | 38.17 ± 0.36
x1 = 0.3053 | 1058.74 ± 0.45 | 1.36818 ± 0.00068 | 36.5 ± 0.35
x1 = 0.4129 | 1063.49 ± 0.46 | 1.3723 ± 0.00068 | 34.8 ± 0.34
x1 = 0.516 | 1064.54 ± 0.46 | 1.37456 ± 0.00068 | 33.23 ± 0.34
x1 = 0.6068 | 1063.64 ± 0.46 | 1.37543 ± 0.00068 | 31.87 ± 0.33
x1 = 0.7035 | 1061.07 ± 0.46 | 1.37543 ± 0.00068 | 30.32 ± 0.32
x1 = 0.8067 | 1057 ± 0.45 | 1.37459 ± 0.00068 | 29.32 ± 0.31
x1 = 0.9076 | 1051.89 ± 0.44 | 1.37257 ± 0.00068 | 28.42 ± 0.31

CCCC(=O)O [butanoic acid]
Conditions | mass density [kg/m3] | refractive index | surface tension liquid-gas [mN/m]
[1] | 953.17 ± 0.48 | – | 26.19 ± 0.3
[2] | – | 1.39599 ± 0.00068 | –

CCCC(=O)O [butanoic acid] + O
Conditions | mass density, [4] [kg/m3] | refractive index, [3] | surface tension liquid-gas, [4] [mN/m]
x1 = 4e-05 | 997.14 ± 0.31 | 1.33256 ± 0.00068 | 71.12 ± 0.59
x1 = 0.0001 | 997.28 ± 0.31 | 1.33259 ± 0.00068 | 70.47 ± 0.78
x1 = 0.0006 | 997.35 ± 0.31 | 1.33282 ± 0.00068 | 66.32 ± 1.1
x1 = 0.0016 | 997.39 ± 0.31 | 1.33325 ± 0.00068 | 60.32 ± 0.98
x1 = 0.0028 | – | – | 55.12 ± 1
x1 = 0.0056 | 998.24 ± 0.31 | 1.33514 ± 0.00068 | 46.34 ± 0.69
x1 = 0.0075 | – | – | 42.12 ± 0.46
x1 = 0.0136 | 999.83 ± 0.31 | 1.33877 ± 0.00068 | 35.88 ± 0.38
x1 = 0.0201 | 1000.84 ± 0.31 | 1.34064 ± 0.00068 | 31.94 ± 0.34
x1 = 0.0299 | 1001.79 ± 0.31 | 1.34506 ± 0.00068 | 29.24 ± 0.31
x1 = 0.048 | 1001.61 ± 0.31 | 1.35064 ± 0.00068 | 28.48 ± 0.31
x1 = 0.0596 | 1000.55 ± 0.31 | 1.35359 ± 0.00068 | 28.35 ± 0.31
x1 = 0.0865 | 998.76 ± 0.31 | 1.35959 ± 0.00068 | 28.23 ± 0.31
x1 = 0.1034 | 997.68 ± 0.31 | 1.36283 ± 0.00068 | 28.15 ± 0.31
x1 = 0.2033 | 992.5 ± 0.33 | 1.37695 ± 0.00068 | 27.92 ± 0.31
x1 = 0.2997 | 987.71 ± 0.34 | 1.38524 ± 0.00068 | 27.73 ± 0.31
x1 = 0.381 | 983.12 ± 0.36 | 1.38923 ± 0.00068 | 27.66 ± 0.31
x1 = 0.5038 | 977.2 ± 0.38 | 1.3933 ± 0.00068 | 27.56 ± 0.31
x1 = 0.5763 | 973.62 ± 0.39 | 1.39471 ± 0.00068 | 27.42 ± 0.31
x1 = 0.7036 | 967.47 ± 0.42 | 1.39625 ± 0.00068 | 27.13 ± 0.31
x1 = 0.8019 | 962.35 ± 0.44 | 1.39667 ± 0.00068 | 26.9 ± 0.31
x1 = 0.9189 | 957.18 ± 0.46 | 1.39654 ± 0.00068 | 26.51 ± 0.3

O=CO [formic acid]
Conditions | mass density [kg/m3] | refractive index | surface tension liquid-gas [mN/m]
[1] | 1211.29 ± 1.5 | – | 38.17 ± 0.53
[2] | – | 1.37459 ± 0.00078 | –

O=CO [formic acid] + O
Conditions | mass density, [4] [kg/m3] | refractive index, [3] | surface tension liquid-gas, [4] [mN/m]
x1 = 0.0007 | 997.52 ± 0.33 | 1.33265 ± 0.00068 | 71.48 ± 1.6
x1 = 0.0015 | 998.02 ± 0.34 | 1.33269 ± 0.00068 | 71.14 ± 1.6
x1 = 0.0028 | 998.79 ± 0.33 | 1.33271 ± 0.00068 | 70.65 ± 1.6
x1 = 0.0067 | 1001.27 ± 0.33 | 1.33343 ± 0.00068 | 69.45 ± 1.6
x1 = 0.0106 | 1003.6 ± 0.34 | 1.3344 ± 0.00068 | 68.59 ± 1.6
x1 = 0.0154 | 1006.31 ± 0.34 | 1.33496 ± 0.00068 | 67.53 ± 1.6
x1 = 0.0277 | 1013.84 ± 0.35 | 1.33633 ± 0.00068 | 65.46 ± 1.5
x1 = 0.0442 | – | – | 63.13 ± 1.5
x1 = 0.0538 | 1026.93 ± 0.38 | 1.33912 ± 0.00068 | –
x1 = 0.0755 | – | – | 59.92 ± 1.4
x1 = 0.1098 | 1052.76 ± 0.46 | 1.34454 ± 0.00068 | 57.29 ± 1.4
x1 = 0.1539 | 1069.49 ± 0.51 | 1.34829 ± 0.00068 | 55.23 ± 1.4
x1 = 0.204 | 1086.51 ± 0.57 | 1.35223 ± 0.00068 | 52.74 ± 1.3
x1 = 0.3004 | 1114.3 ± 0.7 | 1.35863 ± 0.00069 | 49.18 ± 1.3
x1 = 0.4178 | 1141.55 ± 0.85 | 1.36478 ± 0.0007 | 47.25 ± 1.2
x1 = 0.5101 | 1158.59 ± 0.96 | 1.36885 ± 0.00071 | 45.73 ± 1.2
x1 = 0.6133 | 1174.83 ± 1.1 | 1.3722 ± 0.00072 | 43.41 ± 1.2
x1 = 0.7058 | 1187.06 ± 1.2 | 1.37444 ± 0.00073 | 41.42 ± 1.2
x1 = 0.8162 | 1198.4 ± 1.3 | 1.37543 ± 0.00075 | 40.12 ± 1.2
x1 = 0.8967 | 1204.13 ± 1.4 | 1.37543 ± 0.00076 | 39.13 ± 1.2

CCC(=O)O [propanoic acid]
Conditions | mass density [kg/m3] | refractive index | surface tension liquid-gas [mN/m]
[1] | 988.33 ± 0.41 | – | 26.15 ± 0.3
[2] | – | 1.38484 ± 0.00068 | –

CCC(=O)O [propanoic acid] + O
Conditions | mass density, [4] [kg/m3] | refractive index, [3] | surface tension liquid-gas, [4] [mN/m]
x1 = 0.0008 | 997.47 ± 1 | 1.33292 ± 0.00068 | 68.52 ± 0.7
x1 = 0.0016 | 997.64 ± 1 | 1.33304 ± 0.00068 | 66.47 ± 0.65
x1 = 0.0029 | 998.15 ± 1 | 1.33367 ± 0.00068 | 63.66 ± 0.62
x1 = 0.0044 | 998.68 ± 1 | 1.33422 ± 0.00068 | 60.98 ± 0.6
x1 = 0.0064 | 999.29 ± 1 | 1.33485 ± 0.00068 | 57.91 ± 0.54
x1 = 0.0103 | 1000.6 ± 1 | 1.33606 ± 0.00068 | 53.54 ± 0.48
x1 = 0.0179 | 1002.71 ± 1 | 1.3385 ± 0.00068 | 48.16 ± 0.43
x1 = 0.0272 | 1005.51 ± 1.1 | 1.34145 ± 0.00068 | 44.12 ± 0.4
x1 = 0.047 | 1006.86 ± 1.1 | 1.34689 ± 0.00068 | 38.89 ± 0.37
x1 = 0.0618 | 1008.97 ± 1.1 | 1.35074 ± 0.00068 | 36.93 ± 0.36
x1 = 0.0989 | 1017.17 ± 1.2 | 1.35796 ± 0.00068 | 34.71 ± 0.34
x1 = 0.2016 | 1022.07 ± 1.3 | 1.37093 ± 0.00068 | 32.25 ± 0.33
x1 = 0.3008 | 1021.51 ± 1.3 | 1.3784 ± 0.00068 | 31.12 ± 0.32
x1 = 0.4003 | 1018.87 ± 1.2 | 1.38294 ± 0.00068 | 30.19 ± 0.32
x1 = 0.5009 | 1014.33 ± 1.2 | 1.38564 ± 0.00068 | 29.36 ± 0.32
x1 = 0.6039 | 1010.12 ± 1.1 | 1.3869 ± 0.00068 | 28.56 ± 0.31
x1 = 0.702 | 1005.03 ± 1.1 | 1.38721 ± 0.00068 | 27.91 ± 0.31
x1 = 0.7666 | 1002.83 ± 1.1 | 1.38709 ± 0.00068 | 27.52 ± 0.31
x1 = 0.8784 | 996.68 ± 1.1 | 1.38599 ± 0.00068 | 26.92 ± 0.31
